In patent publication US20250205164A1, “FPR2 AGONIST CONTAINING OUTER MEMBRANE VESICLES DERIVED FROM LACTIC ACID BACTERIUM” (ASAHI GROUP HOLDINGS, LTD., priority 2022, published 2025):

Test system: M2 macrophages differentiated from human monocyte-derived cells (THP-1)
Test: IL-10 inducing ability in M2 macrophages (Human IL-10 ELISA of culture supernatant)
Format: cell-based
Conditions: Reference Example 1; 500 ng/ml FSL-1, 5000 nM WKYMVm at preparation, final 1/50; 24 hours; n=6
Protocol: The anti-inflammatory cytokine IL-10 inducing ability in M2 macrophages differentiated from human monocyte-derived cells (THP-1, JCRB Cell Bank) was evaluated by the following procedure, which is a modification of the method described in the literature (BMC Cancer 15:577 (2015)). […]
After the culture, the culture supernatant was collected, and the IL-10 concentration in the supernatant was calculated using Human IL-10 DuoSet ELISA (R&D Systems). […]
Student's t-test was used for statistical processing. […] The results of IL-10 concentration are shown as the average of the values measured in six tests. […]
The IL-10 inducing activity of the test samples was evaluated according to the procedure described in [Reference Example 1] above. […]
The IL-10 induction rate was calculated according to the following formula. […]

Q: How did the “IL-10 Concentration (pg/mL) Average” value turn out when FSL-1 was run?
A: 180.8 pg/mL
